Reference: patent publication US12486255B2, “Modulators of RAS GTPase” (Tosk, Inc., priority 2018, dated 2025)
Several values for one entry are separate records, joined by “and”; a condition that tells them apart may be missing. Equal entries are not always repeated. Entries after “also recorded” stand apart in the source; their conditions may differ.

Tests used:
[1] = system: flies expressing G12V in their wing; assay: Fly assay, wing phenotype reversal; assay type: in vivo, Drosophila
Excerpt: Each wing from mutant flies receiving treatment with either water or compound received a score from two independent scorers according to the scheme outlined in the schematic. The analysis of the scores given to the compound group was compared to the scores given for the control (water) group.
Embryo preparation. GAL4 virgin ♀ were collected over a period of 3-5 days, then crossed with kRAS G12V (3M) ♂ inside a plastic condo supplied with grape agar containing yeast paste. Flies were acclimated for 2 days and embryos present after a span of 4-5 hours were collected along with the agar plate and incubated for 24 hours. The next day, embryos were washed off the agar plate with Embryo Wash solution (120 mM NaCl, 0.03% Triton X) and resuspended in Embryo Inoculation solution (120 mM NaCl, 420 mM Sucrose, 0.05% Triton X-100). Embryos were counted and diluted to 15 embryos/10 μL. 150 embryos (100 μL) were dispensed into each vial.
Food-drug admix preparation. Each fly vial contains 1.5 g of fly food in 4 ml water. The quantity of drug needed is calculated for a total of 4 vials, each vial containing 10 μM of Structure 2. This is equivalent to 0.014 mg of Structure 2/vial, for a total of 0.056 mg of Structure 2.
A stock solution of 0.1 mg/mL Structure 2 in ethanol is prepared. A 500-ml round bottom flask is charged with 6 g of fly food (1.5 g×4), to which is added 20 mL of ethanol, ensuring that the food is entirely covered in solvent. To this heterogeneous solution is added an appropriate amount of Structure 2 stock solution, containing the calculated required quantity, in this case 0.56 mL stock solution.
The ethanol is evaporated under reduced pressure via a rotary evaporator equipped with a bump trap. The resulting dry food is added to three vials, each containing 1.5 g, so that the experiment is performed in triplicate. The quantity is calculated initially for 4 vials, because some food will be stuck to the walls of the round bottom flask and some is also invariably lost in the bump trap during the solvent evaporation step. Control vials lacking Structure 2 or Structure 3 are also analyzed and undergo the exact same food preparation and solvent extraction procedure.
Embryo addition to vials. After all the food-drug admix is prepared and added to the respective vials, to each vial is added 4 mL of water and the vial briefly vortexed. To this liquid mixture is added the embryo solution (100 μL), the vials capped and placed in an incubator or fly room.
Wing mounting and scoring. Flies hatch 10-12 days after the above experimental setup is performed. The resulting adult flies are submerged in a 3:1 70% ethanol:glycerol solution for 24 hours, then wings are dissected with curved Vannas spring scissors (FST #15001-08). The wings are mounted in an 80% glycerol solution on a microscope slide under coverslip seal.
Pictures of the wings were taken using an Accu-Scope microscope equipped with a digital camera and connected to a laptop containing the Accu-Scope Micrometric SE Premium software. The wings were scored according to the following scoring tree:
Wing score analysis. After each wing received a score from two independent scorers, the analysis of the scores given to the Structure 2 and 3 groups was compared to the scores given for the control group and was performed using the IBM SPSS software.
Wings that received a score of 3 or above are considered “reversed”, since their phenotype is closer to WT than to kRAS G12V bearing Drosophila. The findings are plotted in FIG. 9. […]

[2] = system: SW480 cells implanted into nu/nu mice; assay: Xenograft study; assay type: in vivo, nude mice (nu/nu); conditions: SW480 subcutaneous tumors in nu/nu mice, 2 mg/kg ip, 24 days post treatment, p<0.028 Student's t-test
Method: FIG. 10 Effect of Structure 2 on growth of SW480 cells implanted into nu/nu mice. Boxplots showing tumor volumes in nude mice 24 days post treatment ip with either 2 mg/kg Structure 2 or vehicle control (DMSO). Subcutaneous tumors were induced by subcutaneous inoculation in the right flank of 3×10^6 human colon cancer cell line SW480 in Matrigel. Treatment with Structure 2 was initiated 6 days post tumor implantation. Structure 2 was administrated ip at 2 mg/kg, while control was given vehicle DMSO. All animals were sacrificed at day 30. […] In the Figure, (*) designates p<0.028 compared to vehicle control by Student's t-test.
Female nude mice (nu/nu) were purchased from Simonsen Laboratories (Gilroy, CA). All experiments were performed with 4 to 6-week-old female mice. Mice were housed in a barrier unit in the Tosk Animal facility, kept in filter-top cages with water and food provided ad libitum, and were checked at least twice a week for clinical signs of disease and discomfort. Subcutaneous tumors are induced by subcutaneous inoculation in the right flank of 3×10^6 human colon cancer cell line SW480 in Matrigel. The tumors are allowed to grow and volumes (mm^3) are calculated weekly from digital caliper measurements as 0.5×length×width^2. Treatment was initiated 6 days post tumor implantation. Structure 2 was administrated ip at 2 mg/kg, while control was given vehicle DMSO. […]

SW900 cells = assay: Cytotoxicity assay, CellTiter-Glo 2.0, SW900 cells; assay type: cell-based; conditions: SW900, human lung cancer cell expressing kRAS G12V; 48 hours
Method: FIG. 4, panels A-B, illustrates the cytotoxicity of Structure 2 and Structure 3 on SW900 cells. The cytotoxicity of compounds of interest were tested against the human lung cancer cell line SW900 as described in the experimental section. SW900 cells express a G12V mutant kRAS. Compounds were incubated with cells for 48 hours and the assay was developed using Cell Titer Glo 2.0. IC50 vales were determined using GraphPad Prism 4.
(§1) Compounds were assayed for inhibition of cell proliferation and killing cancer cells. Cytotoxicity assays were conducted according to the following general procedure. SW480, SW48, SW900, SW620 were all maintained in Leibowitz L15 media supplemented with 10% fetal bovine serum and 1% PenStrep and grown in a 37° C. incubator without supplemental CO2. Capan-1 cells were maintained in Iscove's Modified Dulbecco's Medium (ATCC 30-2005) containing 20% fetal bovine serum and 1% PenStrep and grown in a 37° C. incubator containing 5% CO2.
For dose-response assays, SW480 cells were plated into 96 well plates (1 million/plate, ˜10,000/well, 250 μL media/well). Cells were allowed to settle and adhere to plate bottom overnight Compounds were placed in 500 μL media and mixed. Then 250 μL compounds+media was placed in an intermediate plate in row A. Rows B through H were filled with 125 μL media. […] Luminescence was read with FLx800 (BioTek Instruments).

A431 = assay: Cytotoxicity assay, A431 cells; assay type: cell-based; conditions: A431, human epidermoid carcinoma cell line expressing wild type kRAS
Method: as §1

Compound: Cc1nc(-c2ccc(CNC(=O)c3cc(CC(C)C)nn3C)cc2)no1 [Structure 2, 3-isobutyl-1-methyl-N-(4-(5-methyl-1,2,4-oxadiazol-3-yl)benzyl)-1H-pyrazole-5-carboxamide]
- Wing score, Scored 1-6, Mean ± SD ([1]; 10 μmolar in fly food, control 1.86 ± 0.62): 2.15
- wing scores compared to the control group ([1]; Tukey HSD and LSD p<0.001, Mann Whitney p=0.002): significantly different from the control group
- Reversal Phenotype (%) ([1]; wings with score of 3 or above, Structure 2 at 10 μmolar, control 8.27): 24% and 24.31%
- tumor volume versus vehicle control [2]: statistically significant reduction in tumor volume; also recorded: mitigates the growth of SW480 cells
- IC50 (SW900 cells): 351 nM
- not cytotoxic at concentrations up to (A431): > 40 µM
